Test results: US20240218333A1, “GENERATING QUIESCENT HEPATIC STELLATE CELLS AND THEIR USE IN LIVER MODELS” (The Cleveland Clinic Foundation, priority 2022, published 2024)

Experiments:
Format in all cases: cell-based, human
[1] = system: hPSC-derived and primary HSCs; experiment: Cell migration (scratch) assay; conditions: 48 hrs
PNPLA3^WT liver cultures = experiment: IL6 supplementation of liver cultures
Procedure: FIG. 15. Elevated IL6/STAT3 activity mediates the enhanced susceptibility to NAFLD phenotypes in PNPLA3^I148M liver cultures (A). Analysis of IL6 by ELISA in the supernatant of shRNA control (Ctrl) or sh-IL6 liver cultures maintained in lipotoxic condition for two weeks. Shown are mean±SD from 3 independent experiments. (B). From the experiment in (A), the transcript levels of CHI3L1 and CXCL10 in purified macrophages were analyzed by RT-qPCR. Shown are mean±SD from 3 independent experiments. (C-D). From the experiment in (A), HSCs were purified and subject to western blot analysis of STAT3 and phosphorylated STAT3 (T705) (C), and to RT-qPCR analysis of the transcript levels of inflammatory cytokine CCL5 and quiescent marker PPARG (D). For western blot, RPS11 was used as a loading control. For RT-qPCR, shown are mean±SD from 3 independent experiments. (E-H). The isogenic pair of liver cultures were maintained in lipotoxic condition for two weeks in the presence of either isotype control antibody (Ctrl) or IL6 neutralizing antibody (nIL6 Ab, 100 ng/ml). Individual cells were purified from these liver cultures and subject to RT-qPCR analysis of lipogenic-associated enzyme genes ACC1 and FASN in hepatocytes (E) and inflammatory cytokine CHI3L1 in macrophages (F), western blot analysis of HSC activation markers FN, COL1A1, and ACTA2 (G), and phosphorylated STAT3 (H) in HSCs. For western blot, RPS11 was used as a loading control. For RT-qPCR, shown are mean±SD from 3 independent experiments. (I-J). PNPLA3^WT liver cultures were treated with either healthy or lipotoxic condition for 5 days and then IL6 (100 pg/ml) was added to one set of lipotoxic treated cultures for additional 2 days. Hepatocytes were purified and subject to analysis for triacylglycerol (TAG) level (I), transcript levels of ACC1 and FASN (J) by RT-qPCR. For TAG quantification, shown are mean±SD for 4 independent experiments; for RT-qPCR, shown are mean±SD from 3 independent experiments. Statistical analysis was performed using a two-tailed unpaired t-test with Welch's corrections or One-way ANOVA/Tukey's multiple comparisons test to calculate exact p-values.
As a complementary approach, we determined if IL6 was sufficient to enhance NAFLD susceptibility in lipotoxic conditions by supplementing IL6 in PNPLA3^WT cultures to a level similar to that of PNPLA3^I148M cultures. We began after 5 days of lipotoxic exposure when disease phenotypes begin to manifest (FIG. 5B) and only maintained liver cultures for 2 more days to minimize the compounded effect of continuous IL6 secretion on our observations. […] Changes in glucose secretion were not detected, however, likely due to the brevity of IL6 supplementation.
Intracellular triacylglycerol levels were analyzed for hPSC-derived HEPs purified from different conditions using commercial kits (Promega) per the manufacturer's instructions.

hPSC-derived HSCs = experiment: In vitro activation of quiescent HSCs; conditions: for activation of hPSC-HSCs (COL1A1, FN, ACTA2 western blot): TGFβ1 5 ng/ml, FBS 10%, PDGF 30 ng/ml, 72 hrs
[2] = system: hPSC-derived multicellular liver culture; experiment: LPS treatment of multicellular liver culture
Text: FIG. 2. Characterization of the multicellular liver culture. (A) Albumin secretion from three-cell (HEP/HSC/Mac), two-cell (HEP/HSC), and HEP monoculture, n=3. (B) Analysis of CYP3A4 and CYP2B6 transcripts in hepatocytes, n=4. (C) Analysis of LRAT transcript in HSCs from three-cell (HSC/HEP/Mac), two-cell (HSC/HEP, HSC/Mac) and HSC monoculture, n=4. (D) Staining of lipid droplets, hepatocytes (ALB), and HSCs (PCDH7). (E) Analysis of IL10 transcript in individual cell-type at three-weeks post-coculture, n=4. (F) Analysis of IL6 and TNF transcripts in macrophages, n=4. Positive control: IFNγ-treated macrophages. (G) Cytokines analysis in liver cultures treated with LPS (500 ng/ml) or control, with or without macrophages, n=4. Data are mean±S.D; Student's t-test (two-tailed) with Welch's corrections (B); One-way ANOVA with Tukey's multiple comparisons test (A, C, E-G).
FIG. 10. Characterization of multicellular liver culture. (A). Transcript levels of PPARG were analyzed in purified HSCs from the hPSC-derived liver cultures with three-cell (HSC, HEP, and Mac), two-cell (HSC and HEP, HSC and Mac) and HSC monoculture at the indicated time points post co-culture by RT-qPCR. […] Transcript levels of IL10 and macrophages marker CD163 were analyzed in purified macrophages from the hPSC-derived liver cultures with three-cell (HSC, HEP, and Mac) and two-cell (Mac and HEP, Mac and HSC) by RT-qPCR. […] HSC activation markers FN and COL1A1 were analyzed by western blot in HSCs purified from three-cell (HEP, HSC and Mac) and two-cell (HSC and HEP, HSC and Mac) liver cultures treated with LPS (100 ng/ml) for one week. […] Transcript levels of TGFB1 and IL1B in pooled cells from the liver cultures of three-cell (HSC, HEP, and Mac) and two-cell (HSC and HEP) were analyzed at one week post LPS (100 ng/ml) treatment by RT-qPCR. […] Transcript levels of IL1B and TGFB1 in purified individual cells from liver cultures treated with either vehicle control or LPS (100 ng/ml) for one week were analyzed by RT-qPCR. Fold changes were calculated by normalized to individual cells treated with vehicle control. […]

[3] = system: Kupffer cells and hPSC-macrophages; experiment: Stimulation of macrophages, cytokine transcripts by RT-qPCR; conditions: LPS 100 ng/ml, 12 hrs
[4] = lipotoxic 5 days, then IL6 100 pg/ml for 2 days

Molecule: C[C@@H](N)[C@H]1CC[C@H](C(=O)Nc2ccncc2)CC1 [Y-27632, reference compound]
- motility of activated hPSC-HSCs (closure distance) ([1]; Y-27632 20 μM): markedly inhibited

Molecule: IL6: interleukin 6, cytokine supplemented to liver cultures
- regulation of genes that drive the GO results of I148M homozygous patients (PNPLA3^WT liver cultures; IL6-treated liver cultures): readily regulated
- activation of HSCs from PNPLA3^WT cultures (PNPLA3^WT liver cultures; IL6 addition under lipotoxic conditions): dramatically activated
- changes in glucose secretion (PNPLA3^WT liver cultures; [4]): not detected
- intracellular TAG levels in PNPLA3^WT hepatocytes (PNPLA3^WT liver cultures; [4]): increased
- lipogenesis-associated enzyme expression in PNPLA3^WT hepatocytes (PNPLA3^WT liver cultures; [4]): increased

Molecule: TGFβ1: transforming growth factor beta 1, pro-fibrotic stimulus
- activation of hPSC-HSCs (COL1A1, FN, ACTA2 western blot) (hPSC-derived HSCs): clearly activated
- motility of hPSC-HSCs (closure distance) ([1]; activating stimulus, similar to pHSCs): enhanced motility

Molecule: lipopolysaccharide [LPS]
- HSC activation markers in liver culture ([2]; LPS 100 ng/ml, one week): elevated activation markers
- cytoplasmic lipid droplets in HSCs in liver culture ([2]; LPS 100 ng/ml, one week): lost cytoplasmic lipid droplets
- IL1β and TGFβ1 levels produced by liver cultures ([2]; LPS treatment (500 ng/ml, FIG. 2G)): much higher levels
- inflammatory cytokine transcription in macrophages (CXCL10, IL6, IL1B) [3]: transcribed inflammatory cytokines
- cytokine induction in hPSC-HSCs (IL6, CXCL10 transcripts) (hPSC-derived HSCs; LPS 500 ng/ml, 12 hrs): induced cytokine

B1: PDGF: platelet-derived growth factor, pro-fibrotic stimulus (protein, UniProt P01127 82-190, looked up)
Platelet-derived growth …: SLGSLTIAEPAMIAECKTRTEVFEISRRLIDRTNANFLVWPPCVEVQRCSGCCNNRNVQCRPTQVQLRPVQVRKIEIVRKKPIFKKATVTLEDHLACKCETVAAARPVT
modifications: homodimer PDGF-BB
notes: platelet-derived growth factor, pro-fibrotic stimulus
- activation of hPSC-HSCs (COL1A1, FN, ACTA2 western blot) (hPSC-derived HSCs): clearly activated
